Reference: patent US8580842B2, “Heteroaryl-substituted 1,3-dihydroindol-2-one derivatives and medicaments containing them” (Abbott GmbH & Co. KG, priority 2003, dated 2013)
Counter-ions that a name gives are not always drawn.

Target: T1, human V1b receptors (Homo sapiens, UniProt P47901)
T1 construct: expressed in transfected cells; host or cells: CHO-K1 (membrane preparation V1b-3H2)
T1 sequence (P47901 1-424): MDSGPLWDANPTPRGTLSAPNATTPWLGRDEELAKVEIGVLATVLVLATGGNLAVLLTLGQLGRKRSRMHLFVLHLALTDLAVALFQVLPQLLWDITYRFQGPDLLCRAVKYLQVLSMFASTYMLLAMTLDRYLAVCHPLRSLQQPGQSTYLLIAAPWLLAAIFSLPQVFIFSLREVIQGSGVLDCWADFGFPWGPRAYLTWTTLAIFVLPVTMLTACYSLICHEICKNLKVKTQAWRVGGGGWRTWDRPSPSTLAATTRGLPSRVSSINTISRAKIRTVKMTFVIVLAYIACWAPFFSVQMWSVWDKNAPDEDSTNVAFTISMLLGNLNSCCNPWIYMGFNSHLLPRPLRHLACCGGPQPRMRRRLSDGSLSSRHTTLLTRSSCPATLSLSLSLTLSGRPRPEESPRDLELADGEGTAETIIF
Assay: Vasopressin V1b receptor binding assay
Conditions: membranes from CHO-K1 cells expressing human V1b receptors, displacement of 1.5 nM 3H-AVP; read-out: Binding affinity for the vasopressin V1b receptor
Method: Vasopressin V1b Receptor Binding Assay
The binding of the compounds of this invention to the vasopressin V1b receptor was determined with the following assay:
Compounds were dissolved in a concentration of 10^−2 M or 10^−3 M in DMSO. Further dilutions were performed with water.
The procedure for the binding assay was based on the method of Tahara et al. (Tahara A et al., Brit. J. Pharmacol. 125, 1463-1470 (1998)). Assays (0.250 ml) consisted of membranes (58 μg protein) from CHO-K1 cells permanently expressing human V1b receptors (preparation V1b-3H2, containing protease inhibitors, Roche complete Mini #1836170), 1.5 nM ^3H-AVP (8-Arg-vasopressin, NET 800) in incubation buffer (total binding) and different concentrations of test compound (displacement). Non-specific binding was defined with 10^−6 M AVP. Assays were performed in triplicate.
Incubation buffer: 50 mM Tris, 10 mM MgCl2, 0.1% BSA adjusted to pH 7.4 with HCl.
After incubation, 60 min at room temperature, bound and free radioligand was separated by filtration under vacuum through Whatman GF/B glass fibre mats using a Skatron cell harvester 7000.
Liquid scintillation counting was performed in beta-counters, Tricarb model 2000 or 2200CA (Packard). Dpm were calculated by a programme with standardisation using a standard quench series.
Evaluation of binding parameters was performed by non-linear regression analysis with SAS. The strategy of this program is similar to the program LIGAND described by Munson and Rodbard (Munson PJ and Rodbard D, Analytical Biochem 107, 220-239 (1980)).

Compared with `COc1ncccc1C1(OC(=O)N2CCN(C3CCN(C)CC3)CC2)C(=O)N(S(=O)(=O)c2ccc(OC(F)(F)F)cc2)c2ccc(Cl)cc21` (stereo not drawn) [Example 123, 4-(1-Methyl-piperidin-4-yl)-piperazine-1-carboxylic acid 5-chloro-3-(2-methoxy-pyridin-3-yl)-2-oxo-1-(4-trifluoromethoxy-benzenesulfonyl)-2,3-dihydro-1H-indol-3-yl ester diacetate], `CCOc1ccccc1C1(NC(=O)N2CCN(C3CCN(C)CC3)CC2)C(=O)N(S(=O)(=O)c2sccc2OC)c2ccc(OC)cc21` (stereo not drawn) [Example 125, 4-(1-Methyl-piperidin-4-yl)-piperazine-1-carboxylic acid [3-(2-ethoxy-phenyl)-5-methoxy-1-(3-methoxy-thiophene-2-sulfonyl)-2-oxo-2,3-dihydro-1H-indol-3-yl]-amide] is lower in Ki: 50 to 500 nM for the first, under 50 nM for the second.

`COc1ccc2c(c1)C(OC(=O)N1CCN(C3CCN(C)CC3)CC1)(c1ccccc1OC)C(=O)N2S(=O)(=O)c1cccs1` (stereo not drawn) [Example 126, 4-(1-Methyl-piperidin-4-yl)-piperazine-1-carboxylic acid 5-methoxy-3-(2-methoxy-phenyl)-2-oxo-1-(thiophene-2-sulfonyl)-2,3-dihydro-1H-indol-3-yl ester dihydrochloride] and `COc1ccccc1C1(OC(=O)N2CCN(C3CCN(C)CC3)CC2)C(=O)N(S(=O)(=O)c2ccccn2)c2ccc(C)cc21` (stereo not drawn) [Example 127, 4-(1-Methyl-piperidin-4-yl)-piperazine-1-carboxylic acid 3-(2-methoxy-phenyl)-5-methyl-2-oxo-1-(pyridine-2-sulfonyl)-2,3-dihydro-1H-indol-3-yl ester dihydrochloride] cannot be ordered by Ki: under 50 nM for the first, under 50 nM for the second.

`COc1ccccc1C1(OC(=O)N2CCC(N3CCN(C)CC3)CC2)C(=O)N(S(=O)(=O)c2cccs2)c2ccc(C)cc21` (stereo not drawn) [Example 130, 4-(4-Methyl-piperazin-1-yl)-piperidine-1-carboxylic acid 3-(2-methoxy-phenyl)-5-methyl-2-oxo-1-(thiophene-2-sulfonyl)-2,3-dihydro-1H-indol-3-yl ester dihydrochloride] and `Cc1ccccc1C1(OC(=O)N2CCN(C3CCN(C)CC3)CC2)C(=O)N(S(=O)(=O)c2ccccn2)c2ccc(C#N)cc21` (stereo not drawn) [Example 134, 4-(1-Methyl-piperidin-4-yl)-piperazine-1-carboxylic acid 5-cyano-2-oxo-1-(pyridine-2-sulfonyl)-3-o-tolyl-2,3-dihydro-1H-indol-3-yl ester dihydrochloride] cannot be ordered by Ki: under 50 nM for the first, under 50 nM for the second.

`COc1ccccc1C1(OC(=O)N2CCN(C3CCN(C)CC3)CC2)C(=O)N(S(=O)(=O)c2cccs2)c2ccc(F)cc21` (stereo not drawn) [Example 136, 4-(1-Methyl-piperidin-4-yl)-piperazine-1-carboxylic acid 5-fluoro-3-(2-methoxy-phenyl)-2-oxo-1-(thiophene-2-sulfonyl)-2,3-dihydro-1H-indol-3-yl ester] and `CCOc1ccccc1C1(OC(=O)N2CCN(C3CCN(C)CC3)CC2)C(=O)N(S(=O)(=O)c2sccc2OC)c2ccc(Cl)cc21` (stereo not drawn) [Example 143, 4-(1-Methyl-piperidin-4-yl)-piperazine-1-carboxylic acid 5-chloro-3-(2-ethoxy-phenyl)-1-(3-methoxy-thiophene-2-sulfonyl)-2-oxo-2,3-dihydro-1H-indol-3-yl ester] cannot be ordered by Ki: under 50 nM for the first, under 50 nM for the second.

`CCOc1ccccc1C1(OC(=O)N2CCN(C3CCN(C)CC3)CC2)C(=O)N(S(=O)(=O)c2ccc(C)cn2)c2ccc(Cl)cc21` (stereo not drawn) [Example 145, 4-(1-Methyl-piperidin-4-yl)-piperazine-1-carboxylic acid 5-chloro-3-(2-ethoxy-phenyl)-1-(5-methyl-pyridine-2-sulfonyl)-2-oxo-2,3-dihydro-1H-indol-3-yl ester] and `CCOc1ccccc1C1(OC(=O)N2CCN(C3CCN(C)CC3)CC2)C(=O)N(S(=O)(=O)c2cccc3cccnc23)c2ccc(OC)cc21` (stereo not drawn) [Example 154, 4-(1-Methyl-piperidin-4-yl)-piperazine-1-carboxylic acid 3-(2-ethoxy-phenyl)-5-methoxy-2-oxo-1-(quinoline-8-sulfonyl)-2,3-dihydro-1H-indol-3-yl ester] cannot be ordered by Ki: under 50 nM for the first, under 50 nM for the second.

First: CCOc1ccccc1C1(OC(=O)N2CCN(C3CCN(C)CC3)CC2)C(=O)N(S(=O)(=O)c2cccc3cccnc23)c2ccc(C#N)cc21 (stereo not drawn) [Example 158, 4-(1-Methyl-piperidin-4-yl)-piperazine-1-carboxylic acid 5-cyano-3-(2-ethoxy-phenyl)-2-oxo-1-(quinoline-8-sulfonyl)-2,3-dihydro-1H-indol-3-yl ester]
Second: COc1ncccc1C1(OC(=O)N2CCN(C3CCN(C)CC3)CC2)C(=O)N(S(=O)(=O)c2cn(C)cn2)c2ccc(Cl)cc21 (stereo not drawn) [Example 165, 4-(1-Methyl-piperidin-4-yl)-piperazine-1-carboxylic acid 5-chloro-3-(2-methoxy-pyridin-3-yl)-1-(1-methyl-1H-imidazole-4-sulfonyl)-2-oxo-2,3-dihydro-1H-indol-3-yl ester diacetate]
The Ki of the first is lower: under 50 nM for the first, 50 to 500 nM for the second. The first binds more tightly here.

Compared with `COc1ncccc1C1(OC(=O)N2CCN(C3CCN(C)CC3)CC2)C(=O)N(S(=O)(=O)c2cn(C)c(C)n2)c2ccc(Cl)cc21` (stereo not drawn) [Example 166, 4-(1-Methyl-piperidin-4-yl)-piperazine-1-carboxylic acid 5-chloro-1-(1,2-dimethyl-1H-imidazole-4-sulfonyl)-3-(2-methoxy-pyridin-3-yl)-2-oxo-2,3-dihydro-1H-indol-3-yl ester diacetate], `COc1ncccc1C1(OC(=O)N2CCN(C3CCN(C)CC3)CC2)C(=O)N(S(=O)(=O)c2ccc(C)s2)c2ccc(Cl)cc21` (stereo not drawn) [Example 168, 4-(1-Methyl-piperidin-4-yl)-piperazine-1-carboxylic acid 5-chloro-3-(2-methoxy-pyridin-3-yl)-1-(5-methyl-thiophene-2-sulfonyl)-2-oxo-2,3-dihydro-1H-indol-3-yl ester diacetate] is lower in Ki: 50 to 500 nM for the first, under 50 nM for the second. The second binds more tightly here.

`COc1ncccc1C1(OC(=O)N2CCN(C3CCN(C)CC3)CC2)C(=O)N(S(=O)(=O)c2cc(C)sc2C)c2ccc(Cl)cc21` (stereo not drawn) [Example 169, 4-(1-Methyl-piperidin-4-yl)-piperazine-1-carboxylic acid 5-chloro-1-(2,5-dimethyl-thiophene-3-sulfonyl)-3-(2-methoxy-pyridin-3-yl)-2-oxo-2,3-dihydro-1H-indol-3-yl ester diacetate] and `COc1ncccc1C1(OC(=O)N2CCN(C3CCN(C)CC3)CC2)C(=O)N(S(=O)(=O)c2csc3ccccc23)c2ccc(Cl)cc21` (stereo not drawn) [Example 170, 4-(1-Methyl-piperidin-4-yl)-piperazine-1-carboxylic acid 1-(benzo[b]thiophene-3-sulfonyl)-5-chloro-3-(2-methoxy-pyridin-3-yl)-2-oxo-2,3-dihydro-1H-indol-3-yl ester diacetate] fall in the same range of Ki: 50 to 500 nM for the first, 50 to 500 nM for the second.

Compared with `COc1ncccc1C1(OC(=O)N2CCN(C3CCN(C)CC3)CC2)C(=O)N(S(=O)(=O)c2ccsc2)c2ccc(Cl)cc21` (stereo not drawn) [Example 171, 4-(1-Methyl-piperidin-4-yl)-piperazine-1-carboxylic acid 5-chloro-3-(2-methoxy-pyridin-3-yl)-2-oxo-1-(thiophene-3-sulfonyl)-2,3-dihydro-1H-indol-3-yl ester diacetate], `COc1ncccc1C1(OC(=O)N2CCN(C3CCN(C)CC3)CC2)C(=O)N(S(=O)(=O)c2cc3ccccc3s2)c2ccc(Cl)cc21` (stereo not drawn) [Example 172, 4-(1-Methyl-piperidin-4-yl)-piperazine-1-carboxylic acid 1-(benzo[b]thiophene-2-sulfonyl)-5-chloro-3-(2-methoxy-pyridin-3-yl)-2-oxo-2,3-dihydro-1H-indol-3-yl ester diacetate] is higher in Ki: under 50 nM for the first, 50 to 500 nM for the second.

`COc1ccc(S(=O)(=O)N2C(=O)C(c3cccnc3OC)(N(C)[C@@H](C)C(=O)N(C)C)c3cc(Cl)ccc32)c(OC)c1` (stereo partly drawn) [Example 220] and `COc1ccc(S(=O)(=O)N2C(=O)C(c3ccc[nH]c3=O)(N3C[C@H](O)C[C@H]3C(=O)N(C)C)c3cc(Cl)ccc32)c(OC)c1` (stereo partly drawn) [Example 224, (2S,4R)-1-[5-Chloro-1-(2,4-dimethoxy-benzenesulfonyl)-2-oxo-3-(2-oxo-1,2-dihydro-pyridin-3-yl)-2,3-dihydro-1H-indol-3-yl]-4-hydroxy-pyrrolidine-2-carlboxylic acid dimethylamide] cannot be ordered by Ki: under 50 nM for the first, under 50 nM for the second.

“(2S,4R)-1-[5-Chloro-3-(2,4-dimethoxy-pyrimidin-5-yl)-1-(5-methyl-pyridine-2-sulfonyl)-2-oxo-2,3-dihydro-1H-indol-3-yl]-4-hydroxy-pyrrolidine-2-carboxylic acid dimethylamide [Example 289]” showed a Ki of under 50 nM.
